Activity and CD data for 37 molecules are collected here from ChEMBL document CHEMBL1833962, “Benzotriazinone and benzopyrimidinone derivatives as potent positive allosteric AMPA receptor modulators” (2011).

Each structure is given as a SMILES string. Calls of active or inactive are those of the source. The calls are words filed in the database; no cut-off is given here.

The subject of experiment [1] is Rattus norvegicus. Description: Positive allosteric modulation of AMPA receptor in anesthetized Long-Evans rat assessed as amplitude increase by measuring evoked hilar excitatory post-synaptic field potentials at 5 mg/kg, ip for every 20 secs up to 80 to 100 mins by electrophysiology assay. Format: functional.
For experiment [2], the species on record is Rattus norvegicus. Description: Positive allosteric modulation of AMPA receptor in Sprague-Dawley rat hippocampal neuron assessed as glutamate-induced response pre-treated for 20 secs by patch-clamp electrophysiology. The experiment is classed as tissue-based. The following applies: Hippocampus. For orientation: Patch clamp records ionic current or voltage across a cell membrane.

Experiment [3] relates to Rattus norvegicus. In words: Positive allosteric modulation of AMPA receptor in anesthetized Long-Evans rat assessed as amplitude increase by measuring evoked hilar excitatory post-synaptic field potentials at 3 mg/kg, ip for every 20 secs up to 80 to 100 mins by electrophysiology assay. The following applies: route intraperitoneal. The experiment is classed as functional.

Experiment [4] has as its system Rattus norvegicus. In words: Positive allosteric modulation of AMPA receptor in anesthetized Long-Evans rat assessed as amplitude increase by measuring evoked hilar excitatory post-synaptic field potentials at 1 mg/kg, iv for every 20 secs up to 80 to 100 mins by electrophysiology assay. The experiment is classed as functional.
Experiment [5] has as its system Rattus norvegicus. Description: Positive allosteric modulation of AMPA receptor in anesthetized Long-Evans rat assessed as amplitude increase by measuring evoked hilar excitatory post-synaptic field potentials at 1 mg/kg, ip for every 20 secs up to 80 to 100 mins by electrophysiology assay. Format: functional. The following applies: route intraperitoneal.
In experiment [6] the test system is Rattus norvegicus. Description: Positive allosteric modulation of AMPA receptor in anesthetized Long-Evans rat assessed as amplitude increase by measuring evoked hilar excitatory post-synaptic field potentials at 2 mg/kg, ip for every 20 secs up to 80 to 100 mins. Format: functional. The note with it: route intraperitoneal.
The test system of experiment [7] is Rattus norvegicus. Description: Positive allosteric modulation of AMPA receptor in anesthetized Long-Evans rat assessed as amplitude increase by measuring evoked hilar excitatory post-synaptic field potentials at 0.5 mg/kg, iv for every 20 secs up to 80 to 100 mins by electrophysiology assay. Format: functional.
Experiment [8] deals with Rattus norvegicus. Description: Positive allosteric modulation of AMPA receptor in anesthetized Long-Evans rat assessed as amplitude increase by measuring evoked hilar excitatory post-synaptic field potentials at 10 mg/kg, ip for every 20 secs up to 80 to 100 mins by electrophysiology assay. The note with it: route intraperitoneal. Format: functional.
Experiment [9] concerns Rattus norvegicus. In words: Memory enhancing effect in Long-Evans rat assessed as increase in tetanic stimulation of hippocampal long term potentiation at 1 mg/kg, ip. The experiment is classed as functional, organism-based. Set-up: dose 1 mg/kg. The note with it: Hippocampus.

As for `C#CCn1cnc2cc3c(cc2c1=O)OC1CCCN1C3=O` (stereo unspecified), the outcome with Rattus norvegicus [1] was inactive. In addition, the CD in the experiment filed under Rattus norvegicus [2] worked out at 0.13 µM. On to `C[C@H](Cn1ncnn1)n1nnc2cc3c(cc2c1=O)OC1CCCN1C3=O` (stereo partly specified), for which, in the experiment with Rattus norvegicus [1] (route intraperitoneal), the Activity came out at 39%. In the experiment listed under Rattus norvegicus [2], the CD amounted to 0.042 µM. `O=C1c2cc3ncn(CCn4cc(Cl)cn4)c(=O)c3cc2OC2CCCN12` (stereo unspecified): the Activity in the experiment on Rattus norvegicus [3] was 3%. In the experiment filed under Rattus norvegicus [2], the CD was determined as 0.019 µM.

Turning to `O=C1c2cc3c(cc2OCN1CC(O)c1ccccc1)C(=O)N1CCCC1O3` (racemic), the CD in the experiment listed under Rattus norvegicus [2] worked out at 1 µM. Consider `O=C1c2cc3c(cc2OCN1CCc1cccc(F)c1)C(=O)N1CCCC1O3` (stereo unspecified), for which the values for the Activity with Rattus norvegicus [4] and in the experiment on Rattus norvegicus [1] (route intraperitoneal) were 28% and 2%, respectively. Besides, the CD in the experiment listed under Rattus norvegicus [2] was determined as 0.011 µM. As for `O=C(CN1COc2cc3c(cc2C1=O)OC1CCCN1C3=O)c1ccccc1` (stereo unspecified), in the experiment filed under Rattus norvegicus [2], the CD amounted to 100 µM. With `O=C1c2cc3ncn(CCc4ccccc4)c(=O)c3cc2OC2CCCN12` (stereo unspecified), the Activity in the experiment on Rattus norvegicus [1] (route intraperitoneal) was determined as 2%. Also, the CD in the experiment listed under Rattus norvegicus [2] was found to be 0.13 µM.

As for `COC(=O)[C@@H](Cc1ccccc1)N1COc2cc3c(cc2C1=O)OC1CCCN1C3=O` (stereo partly specified), the CD in the experiment filed under Rattus norvegicus [2] turned out to be 48 µM. On to `C[C@H](Cn1cc(Cl)cn1)n1cnc2cc3c(cc2c1=O)OC1CCCN1C3=O` (stereo partly specified), for which the Activity with Rattus norvegicus [5] is listed as 2%. The CD in the experiment listed under Rattus norvegicus [2] is 0.0069 µM. Take `C#C[C@H](Cc1cccc(F)c1)n1nnc2cc3c(cc2c1=O)OC1CCCN1C3=O` (stereo partly specified): in the experiment on Rattus norvegicus [6], the Activity came out at 5%. In the experiment filed under Rattus norvegicus [2], the CD stood at 0.004 µM.

In the case of `C[C@H](Cn1nccn1)n1cnc2cc3c(cc2c1=O)OC1CCCN1C3=O` (stereo partly specified), the Activity in the experiment on Rattus norvegicus [1] (route intraperitoneal) is reported as 7%. For the same molecule, in the experiment filed under Rattus norvegicus [2], the CD came to 0.45 µM. As to `COC(CN1COc2cc3c(cc2C1=O)OC1CCCN1C3=O)c1ccccc1` (racemic), the CD in the experiment filed under Rattus norvegicus [2] was 7.4 µM.

Turning to `CC(C)(CN1COc2cc3c(cc2C1=O)OC1CCCN1C3=O)c1cccc(F)c1` (stereo unspecified), the CD in the experiment filed under Rattus norvegicus [2] came to 17 µM. On to `C#C[C@H](Cc1cccc(F)c1)n1nnc2cc3c(cc2c1=O)OCN(C1CC1)C3=O`, for which the Activity in the experiment with Rattus norvegicus [1] (route intraperitoneal) stood at 10%. The CD in the experiment filed under Rattus norvegicus [2] came out at 0.2 µM.

Turning to `C[C@H](Cn1ncnn1)n1cnc2cc3c(cc2c1=O)OC1CCCN1C3=O` (stereo partly specified), in the experiment with Rattus norvegicus [1] (route intraperitoneal), the Activity is 22%. In addition, the CD in the experiment listed under Rattus norvegicus [2] was determined as 0.03 µM. On to `O=C1c2cc3c(cc2OCN1CC(F)(F)c1cccc(F)c1)C(=O)N1CCCC1O3` (stereo unspecified), for which the CD in the experiment listed under Rattus norvegicus [2] turned out to be 1.5 µM. With `Cn1nnc2cc3c(cc2c1=O)OC1CCCN1C3=O` (stereo unspecified), in the experiment on Rattus norvegicus [1], the result was inactive. Also, the CD in the experiment listed under Rattus norvegicus [2] worked out at 0.68 µM. As for `C[C@@H](Cn1cc(Cl)cn1)n1cnc2cc3c(cc2c1=O)OC1CCCN1C3=O` (stereo partly specified), in the experiment filed under Rattus norvegicus [2], the CD entry is “inactive”. On the same count and under the same terms, in the case of `O=C1c2cc3c(cc2OCN1CCc1ccccc1)C(=O)N1CCCC1O3` (stereo unspecified) it was 0.25 µM. On the same count and under the same terms, to `C#C[C@H](Cc1cccc(F)c1)N1COc2cc3c(cc2C1=O)OC1CCCN1C3=O` (stereo partly specified) belongs 0.004 µM. Consider `O=C1c2cc3nnn(CCc4cccc(F)c4)c(=O)c3cc2OC2CCCN12` (stereo unspecified), for which the Activity with Rattus norvegicus [4] and in the experiment with Rattus norvegicus [1] (route intraperitoneal) was 24% each time. In the experiment filed under Rattus norvegicus [2], the CD turned out to be 0.0031 µM. With `CC[C@H](Cc1cccc(F)c1)n1nnc2cc3c(cc2c1=O)OC1CCCN1C3=O` (stereo partly specified), in the experiment with Rattus norvegicus [1] (route intraperitoneal), the Activity was 2%. Besides, the CD in the experiment filed under Rattus norvegicus [2] worked out at 0.021 µM. For the molecule `CC[C@H](Cn1cc(Cl)cn1)n1cnc2cc3c(cc2c1=O)OC1CCCN1C3=O` (stereo partly specified), the Activity in the experiment with Rattus norvegicus [3] is 4%. Also, in the experiment listed under Rattus norvegicus [2], the CD turned out to be 0.0084 µM. Turning to `O=C1c2cc3ncn(CCc4cccc(F)c4)c(=O)c3cc2OC2CCCN12` (stereo unspecified), the figures for the Activity in the experiment on Rattus norvegicus [7] and in the experiment with Rattus norvegicus [3] were 21% and 27%, respectively. For the same molecule, in the experiment listed under Rattus norvegicus [2], the CD stood at 0.0037 µM. As for `O=C1c2cc3ncn(CCn4cccn4)c(=O)c3cc2OC2CCCN12` (stereo unspecified), in the experiment on Rattus norvegicus [1], the outcome was inactive. Moreover, the CD in the experiment listed under Rattus norvegicus [2] worked out at 0.17 µM. Turning to `O=C1c2cc3nnn(CCn4cccn4)c(=O)c3cc2OC2CCCN12` (stereo unspecified), in the experiment with Rattus norvegicus [1], the result was inactive. In addition, the CD in the experiment filed under Rattus norvegicus [2] worked out at 0.1 µM. On to `O=C1c2cc3nnn(C4CC4)c(=O)c3cc2OC2CCCN12` (stereo unspecified), for which the Activity in the experiment with Rattus norvegicus [8] amounted to 3%. The CD in the experiment filed under Rattus norvegicus [2] came out at 0.4 µM. In the case of `C#CCn1nnc2cc3c(cc2c1=O)OC1CCCN1C3=O` (stereo unspecified), the outcome with Rattus norvegicus [1] was inactive. Also, the CD in the experiment listed under Rattus norvegicus [2] was determined as 0.14 µM. Consider `COC(=O)[C@H](Cc1ccccc1)N1COc2cc3c(cc2C1=O)OC1CCCN1C3=O` (stereo partly specified), for which, in the experiment filed under Rattus norvegicus [2], the CD worked out at 0.28 µM. Consider `C#C[C@H](Cc1cc(F)cc(F)c1)n1cnc2cc3c(cc2c1=O)OC1CCCN1C3=O` (stereo partly specified), for which, in the experiment with Rattus norvegicus [5], the Activity is on record as 30%. Moreover, the CD in the experiment listed under Rattus norvegicus [2] was 0.002 µM. On to `O=C1c2cc3ncn(C4CC4)c(=O)c3cc2OC2CCCN12` (stereo unspecified), for which, in the experiment listed under Rattus norvegicus [2], the CD worked out at 6.7 µM. As to `C#C[C@H](Cc1cc(F)cc(F)c1)n1nnc2cc3c(cc2c1=O)OC1CCCN1C3=O` (stereo partly specified), the Activity in the experiment with Rattus norvegicus [1] (route intraperitoneal) came out at 34%. Moreover, the CD in the experiment filed under Rattus norvegicus [2] amounted to 0.0029 µM. As to `C#C[C@H](Cc1cccc(F)c1)n1cnc2cc3c(cc2c1=O)OC1CCCN1C3=O` (stereo partly specified), the Activity in the experiment on Rattus norvegicus [6] is reported as 12%. Further, the CD in the experiment listed under Rattus norvegicus [2] was 0.006 µM.

With `C[C@H](Cn1cnnn1)n1nnc2cc3c(cc2c1=O)OC1CCCN1C3=O` (stereo partly specified), the Activity in the experiment with Rattus norvegicus [1] (route intraperitoneal) stood at 10%. In addition, in the experiment filed under Rattus norvegicus [2], the CD is 0.015 µM. Consider `C[C@H](Cn1ncnn1)n1nnc2cc3c(cc2c1=O)OCN(C1CC1)C3=O`, for which the outcome in the experiment with Rattus norvegicus [9] was Active. The Activity in the experiment with Rattus norvegicus [1] (route intraperitoneal) is 33%. The CD in the experiment listed under Rattus norvegicus [2] was 0.46 µM. For the molecule `C#C[C@H](Cc1ccccc1)N1COc2cc3c(cc2C1=O)OC1CCCN1C3=O` (stereo partly specified), in the experiment filed under Rattus norvegicus [2], the CD turned out to be 0.32 µM. As for `C[C@H](Cn1cnnn1)n1nnc2cc3c(cc2c1=O)OCN(C1CC1)C3=O`, the Activity in the experiment with Rattus norvegicus [1] (route intraperitoneal) turned out to be 7%. The CD in the experiment listed under Rattus norvegicus [2] is 0.19 µM.
